This is an account of results in ChEMBL document CHEMBL1201862, “PubChem BioAssay data set” (2004).

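Five concentrations, 48 hours, 96-well plates. GI50 is the concentration that inhibits growth by half.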 Calls of active or inactive are those of the source. Rule as the data show it: active = GI50 up to about 1.1 µM and inactive = higher.

Test systems include 786-0; CCRF-CEM; EKVX; HCC 2998; HL-60; IGROV-1; LXFL 529; NCI-H226; OVCAR-8; SF-268; SF-539; SN12C; SNB-75; SR; U-251; UO-31; SK-MEL-28.
Holding throughout (assay): NCI tumour cell line growth inhibition, 48 h

`O=C(c1ccccc1)N1C2CCC1C(C(F)(F)F)=C2C(F)(F)F`: the GI50 was > 100 µM (inactive) in the test with 786-0; > 100 µM (inactive) in the test with CCRF-CEM; > 100 µM (inactive) in the test on EKVX; > 100 µM (inactive) in the test with HCC 2998; 45.7 µM (inactive) with HL-60; > 100 µM (inactive) in the test on IGROV-1. In addition, the GI50 with LXFL 529, in the test with NCI-H226, in the test on OVCAR-8, with SF-268, in the test with SF-539 and with SN12C was > 100 µM (inactive) throughout. Also, the GI50 with SNB-75, with SR, in the test with U-251 and with UO-31 was > 100 µM (inactive) each time.
In the case of `CC1=C(C(=O)Nc2ccc([N+](=O)[O-])cc2)C(c2ccccc2O)C(C(=O)Nc2ccc([N+](=O)[O-])cc2)=C(C)N1`, the GI50 in the test on 786-0 was 21.2 µM (inactive); with CCRF-CEM, 18 µM (inactive); with EKVX, 23.1 µM (inactive); with HCC 2998, 13.5 µM (inactive); in the test on HL-60, 19.2 µM (inactive); in the test with IGROV-1, 25.9 µM (inactive). Besides, the GI50 in the test with LXFL 529 was 19.1 µM (inactive); with NCI-H226, 16.6 µM (inactive); in the test with OVCAR-8, 28.2 µM (inactive); with SF-268 it was 19.1 µM (inactive); in the test with SF-539, 22.1 µM (inactive); in the test with SK-MEL-28, 21.6 µM (inactive). Besides, the GI50 in the test on SN12C is 19.6 µM (inactive); in the test with SNB-75, 25.8 µM (inactive); with U-251 it was 21.4 µM (inactive); in the test on UO-31 it was 15.2 µM (inactive).
In the case of `O=C(O)/C(Cl)=C(\Cl)C(=O)Nc1ccccc1`, the GI50 with 786-0 is > 100 µM (inactive); in the test on CCRF-CEM, 69.3 µM (inactive); in the test with EKVX it was > 100 µM (inactive); with HCC 2998, > 100 µM (inactive); in the test with IGROV-1, > 100 µM (inactive); in the test on LXFL 529, > 100 µM (inactive). For the same compound, the GI50 in the test with NCI-H226, in the test on SF-268, with SF-539, with SK-MEL-28, with SN12C and with SNB-75 was > 100 µM (inactive) each time. Besides, the GI50 with SR, in the test on U-251 and in the test with UO-31 was > 100 µM (inactive) each time.
Regarding `Cc1cc(C)c(C(=O)O)c(N)c1O`, the GI50 in the test on 786-0, with CCRF-CEM, in the test with EKVX, in the test with HCC 2998, in the test on HL-60 and in the test on IGROV-1 was > 100 µM (inactive) in each case. Moreover, the GI50 in the test with LXFL 529, with NCI-H226, in the test with OVCAR-8, in the test on SF-268, in the test with SK-MEL-28 and in the test on SN12C was > 100 µM (inactive) in each case. Moreover, the GI50 in the test with SNB-75, in the test on SR, in the test with U-251 and in the test on UO-31 was > 100 µM (inactive) each time.
For the compound `COc1cc([C@@H]2c3cc4c(cc3[C@@H](NCc3ccc(C#N)cc3)C3COC(=O)[C@@H]32)OCO4)cc(OC)c1O` (stereo not given in full), the GI50 in the test on 786-0 was 0.632 µM (active); in the test with CCRF-CEM, 0.233 µM (active); in the test with EKVX, 1.98 µM (inactive); in the test with HCC 2998, 1.57 µM (inactive); in the test on HL-60, 0.116 µM (active); in the test on IGROV-1, 1.15 µM (inactive). Moreover, the GI50 in the test on LXFL 529 was 4.5 µM (inactive); in the test on NCI-H226, 0.283 µM (active); in the test on OVCAR-8, 1.2 µM (inactive); with SF-268, 1.25 µM (inactive); in the test with SF-539, 0.877 µM (active); with SK-MEL-28, 2.33 µM (inactive). Moreover, the GI50 was 0.414 µM (active) in the test with SN12C, 0.628 µM (active) in the test on SNB-75, 0.123 µM (active) with U-251 and 1.61 µM (inactive) in the test on UO-31.
As for `NNC(=O)N/N=C1\CN(c2ccc(Cl)cc2Cl)C(=O)C(=O)C1c1nc2ccccc2o1` (stereo not given), the GI50 in the test on 786-0, with CCRF-CEM, with EKVX, with HCC 2998, in the test on IGROV-1 and in the test with LXFL 529 was > 100 µM (inactive) each time. In addition, the GI50 in the test on NCI-H226, in the test with OVCAR-8, in the test with SF-268, in the test on SF-539, in the test with SK-MEL-28 and in the test on SN12C was > 100 µM (inactive) in each case. The GI50 was > 100 µM (inactive) in the test with SNB-75, > 100 µM (inactive) with SR, 54.8 µM (inactive) in the test on U-251 and 92.5 µM (inactive) with UO-31.
In the case of `CC(C)C12Cc3c(ccc4ccccc34)OC1(C)Oc1ccc3ccccc3c1C2` (stereo not given), the GI50 in the test on 786-0 was > 100 µM (inactive); in the test on CCRF-CEM, > 100 µM (inactive); in the test on EKVX, 10.6 µM (inactive); in the test with IGROV-1, > 100 µM (inactive); in the test on LXFL 529, > 100 µM (inactive); in the test on NCI-H226, > 100 µM (inactive). Moreover, the GI50 in the test with OVCAR-8, with SF-268, with SF-539, with SN12C, in the test on SNB-75 and with SR was > 100 µM (inactive) each time. Moreover, the GI50 in the test with U-251 and with UO-31 was > 100 µM (inactive) in each case.
Take `O=S(=O)(C1=CC(S(=O)(=O)c2ccccc2)COC1)c1ccccc1` (stereo not given): the GI50 with 786-0, in the test on CCRF-CEM, with EKVX, in the test with HCC 2998, with HL-60 and in the test on IGROV-1 was > 100 µM (inactive) each time. Also, the GI50 in the test with LXFL 529, with OVCAR-8, in the test with SF-268, with SF-539, in the test on SK-MEL-28 and with SN12C was > 100 µM (inactive) each time. Also, the GI50 in the test on SNB-75, in the test with SR, with U-251 and with UO-31 was > 100 µM (inactive) in each case.
`NC(=O)C(=O)CC(=O)c1ccccc1NC1=CC(=O)C(=O)c2ccccc21`: the GI50 was > 61.1 µM (inactive) with 786-0; 33.9 µM (inactive) with CCRF-CEM; > 100 µM (inactive) in the test on EKVX; > 100 µM (inactive) with HCC 2998; 22.6 µM (inactive) with HL-60; > 92.3 µM (inactive) with IGROV-1. In addition, the GI50 is 50.6 µM (inactive) in the test with LXFL 529; > 73.3 µM (inactive) in the test on NCI-H226; 48.2 µM (inactive) in the test with OVCAR-8; > 40.8 µM (inactive) in the test with SF-268; > 100 µM (inactive) in the test with SF-539; > 51.1 µM (inactive) in the test on SK-MEL-28. Further, the GI50 in the test on SN12C is 51.6 µM (inactive); with SNB-75, > 88.3 µM (inactive); in the test on U-251, > 70 µM (inactive); with UO-31, > 68.5 µM (inactive).
Turning to `Fc1ccc(C2SCc3nc4ccccc4n32)cc1` (stereo not given), the GI50 in the test on 786-0 was 42.9 µM (inactive); with CCRF-CEM it was 42.1 µM (inactive); with EKVX it was 58.1 µM (inactive); in the test on HL-60 it was 22.3 µM (inactive); in the test with IGROV-1 it was 47.9 µM (inactive); in the test with LXFL 529, 34.4 µM (inactive). In addition, the GI50 in the test with NCI-H226 is 37.4 µM (inactive); with OVCAR-8, 49 µM (inactive); in the test on SF-268, 54.3 µM (inactive); in the test on SF-539, > 100 µM (inactive); in the test with SK-MEL-28 it was 23.6 µM (inactive); with SN12C it was 27 µM (inactive). Besides, the GI50 is 3.1 µM (inactive) in the test with SNB-75, 27 µM (inactive) in the test with SR, 51.3 µM (inactive) in the test on U-251 and 23 µM (inactive) with UO-31.
Regarding `CS(=O)(=O)OCCn1cnc2nc(NC(=O)c3ccccc3)[nH]c(=O)c21`, the GI50 in the test on 786-0, with CCRF-CEM, in the test on EKVX, in the test with HL-60, in the test on IGROV-1 and in the test with LXFL 529 was > 100 µM (inactive) each time. Besides, the GI50 with NCI-H226, with OVCAR-8, in the test on SF-268, with SF-539, in the test on SK-MEL-28 and in the test with SN12C was > 100 µM (inactive) throughout. The GI50 in the test with SNB-75, in the test with SR, with U-251 and with UO-31 was > 100 µM (inactive) throughout.
For the compound `Cc1ccc(Nc2nc(C)c(C(/C=C/c3ccc(/C=C/C(=N/NC(=O)C[n+]4ccccc4)c4sc(Nc5ccc(C)cc5[N+](=O)[O-])nc4C)cc3)=N\NC(=O)C[n+]3ccccc3)s2)c([N+](=O)[O-])c1`, the GI50 with 786-0 was > 100 µM (inactive); with CCRF-CEM it was 32.3 µM (inactive); in the test on EKVX, 78.3 µM (inactive); in the test with HCC 2998 it was > 100 µM (inactive); in the test on HL-60, 27.4 µM (inactive); in the test on IGROV-1 it was > 100 µM (inactive). Further, the GI50 was 95.7 µM (inactive) with LXFL 529; 14.6 µM (inactive) in the test on NCI-H226; > 100 µM (inactive) in the test with OVCAR-8; > 100 µM (inactive) with SF-268; 89.1 µM (inactive) in the test on SF-539; > 100 µM (inactive) in the test with SK-MEL-28. Moreover, the GI50 is 55.8 µM (inactive) in the test on SN12C; 33.5 µM (inactive) with SNB-75; 67.3 µM (inactive) in the test with SR; > 100 µM (inactive) with U-251; 46.5 µM (inactive) in the test on UO-31.
